{"source": "patent US9599603B2", "about": "“Methods and compositions for modulating adhesion and migration of cadherin expressing cells” (Case Western Reserve University, priority 2008, dated 2017)", "format_in_all_cases": "cell-based", "key": {"[1]": {"target": "T1, N-cadherin (Homo sapiens, UniProt P19022)", "T1 construct": "Fc (C); purchased R&D Systems", "T1 sequence (P19022 with tags, fused parts or gaps limits assumed)": "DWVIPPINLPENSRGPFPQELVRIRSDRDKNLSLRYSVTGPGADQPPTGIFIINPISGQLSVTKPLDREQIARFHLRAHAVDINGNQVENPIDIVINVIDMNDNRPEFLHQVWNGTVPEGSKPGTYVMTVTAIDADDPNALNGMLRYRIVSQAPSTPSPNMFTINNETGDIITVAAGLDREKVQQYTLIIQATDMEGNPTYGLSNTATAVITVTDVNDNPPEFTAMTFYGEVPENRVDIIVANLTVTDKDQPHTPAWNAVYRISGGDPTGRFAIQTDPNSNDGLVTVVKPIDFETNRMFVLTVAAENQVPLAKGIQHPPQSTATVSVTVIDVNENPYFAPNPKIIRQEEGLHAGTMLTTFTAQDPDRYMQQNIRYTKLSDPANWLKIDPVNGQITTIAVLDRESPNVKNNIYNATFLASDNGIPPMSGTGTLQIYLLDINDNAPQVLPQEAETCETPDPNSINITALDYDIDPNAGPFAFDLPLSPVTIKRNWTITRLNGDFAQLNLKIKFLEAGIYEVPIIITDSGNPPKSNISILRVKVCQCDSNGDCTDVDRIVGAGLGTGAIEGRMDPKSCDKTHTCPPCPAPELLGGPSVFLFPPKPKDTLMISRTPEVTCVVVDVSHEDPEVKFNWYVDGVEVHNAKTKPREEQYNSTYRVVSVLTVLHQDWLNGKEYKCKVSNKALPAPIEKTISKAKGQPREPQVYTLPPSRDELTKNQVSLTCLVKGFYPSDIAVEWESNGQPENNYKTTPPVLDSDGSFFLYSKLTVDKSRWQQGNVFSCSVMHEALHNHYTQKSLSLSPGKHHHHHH", "experiment": "RGC neurite outgrowth on N-cadherin substrate (antagonist screen)", "conditions": "ADH-1 vs vehicle control (FIG. 16A)", "experimental": "Sterile 35 mm tissue culture dishes for retinal explants were coated with nitrocellulose in methanol and allowed to dry, before spreading 0.04-0.045 μg/plate of human N-cadherin-Fc (R&D Systems, Minneapolis, Minn.) across the center of each dish. Remaining binding sites on the nitrocellulose were blocked with 2% bovine serum albumin (BSA; Sigma, St. Louis, Mo.) in calcium/magnesium free phosphate buffer (CMF), and the dishes were rinsed with RPMI-1640 medium (HyClone, Logan, Utah). Cultures of retinal explants from embryonic day 8 chick were made as previously described in. Retinal explants were grown in RPMI-1640, 10% fetal bovine serum (HyClone), 2% chick serum (Invitrogen, Carlsbad, Calif.), 100 U/ml penicillin, 0.1 mg/ml streptomycin and 0.025 μg/ml amphotericin (Sigma). […] Neurite outgrowth was evaluated approximately 20 hours after plating. […] If outgrowth was affected, subsequent experiments determined the minimum concentration to affect outgrowth. […]\nNeurite outgrowth was examined on a Nikon TE-200 inverted microscope (Tokyo, Japan), using a 10× objective. […] Subsequently measurements of neurite length and density were quantitated using the images. Length of the five longest neurites per explant was measured using MetaMorph version 6.3r4 (Molecular Devices, Downington Pa.). […] Control and experimental conditions were analyzed using the same thresholding parameters. […]"}, "[2]": {"target": "T1, N-cadherin", "experiment": "LN-229 glioblastoma cell adhesion to N-cadherin substrate", "conditions": "dose of 1 mM, 2 h adhesion", "experimental": "(§1) Sterile 35 mm tissue culture dishes were coated with nitrocellulose in methanol and allowed to dry. Distinct spots, containing 50 ng of either purified Laminin (Sigma) or N-cadherin-Fc (R&D Systems), were made by spotting 10 μl of protein solution on the nitrocellulose-coated tissue culture dishes. Each dish contained two distinct spots of both Laminin and N-cadherin-Fc. After a 20-min incubation at room temperature, the protein solutions were aspirated. Remaining binding sites on the nitrocellulose were blocked with 2% BSA in PBS, and the dishes were rinsed with DMEM (Invitrogen).\n(§2) LN-229 (American Type Culture Collection, Manassus, Va.) cells plated the previous day in 100 mm tissue culture dishes and grown to 80% confluence were released with 2 mM EDTA in CMF. 4×10^5 cells were added to each tissue culture dish in the presence of N-cadherin peptidomimetic small molecules, reconstituted in either DMSO or 0.3% cyclodextrin, and diluted in DMEM supplemented with 10% fetal bovine serum (HyClone). […]\n(§3) Adherent cells were detected by phase contrast light microscopy using a 20× objective on a Nikon TE-200 inverted microscope. […] The number of adherent cells per image was determined using threshold parameters in MetaMorph that highlighted individual cells that spread on the substrate spots. […] Data from control and experimental conditions were evaluated using the same thresholding parameters. […]"}, "[3]": {"tested_on": "Laminin", "experiment": "LN-229 glioblastoma cell adhesion to Laminin substrate (specificity control)", "conditions": "1 mM ADH-1, compared to control", "experimental": "as §1, §2, §3"}}, "data": [{"smiles": "CC(=O)N[C@H]1CSSC[C@@H](C(N)=O)NC(=O)[C@H](C(C)C)NC(=O)[C@H](C)NC(=O)[C@H](Cc2c[nH]cn2)NC1=O", "note": "[ADH-1, N-Ac-CHAVC-NH2]", "values": [{"measurement": "effect on RGC neurite outgrowth on a substrate of N-cadherin", "setting": "[1]", "value": "eliminate RGC neurite outgrowth"}, {"measurement": "adhesion of LN-229 cells to an N-cadherin substrate", "setting": "[2]", "value": "46 % of control"}, {"measurement": "LN-229 adhesion to Laminin", "setting": "[3]", "value": "unaffected"}]}]}
